Test system: osteoclasts
Assay: Zoledronic acid treatment of normal mice: serum bone markers (ELISA) and micro-CT bone volumes
Assay type: in vivo
Details: normal ZA-treated mice; 0.25 mg/kg i.p. bi-weekly; vehicle 142±28; p=0.0296
Procedure: The right hindlimb of each mouse was fixed in 10% Formalin for 48 hours, and then stored in 70% ethanol at 4° C. MicroCT analysis was performed as previously described (2009, Frisch et al., Blood 114:4054-4063).
All ELISAs were performed as indicated by the manufacturer's instructions. CTX measurements were performed using the RatLaps ELISA (AC-06F1, Immunodiagnostic Systems Inc.). TRACP 5b measurement was performed using Mouse TRAP ELISA (SB-TR103, Immunodiagnostic Systems Inc.). Osteocalcin measurement performed using the Mouse Osteocalcin EIA kit (BT-470, Biomedical Technologies). Bovine CTX from bone wafer culture media was measured using the Crosslaps® for Culture ELISA (AC-07F1, Immunodiagnostic Systems Inc.). Murine CCL3 protein measurement was performed using the Mouse CCL3/MIP-1 alpha Quantikine ELISA Kit (MMA00, R&D systems). Human CCL3 protein measurement was performed using the Human CCL3/MIP-1 alpha Quantikine ELISA Kit (DMA00, R&D systems).
Mice were given a 0.25 mg/kg intraperitoneal injection of zoledronic acid (ZA) bi-weekly for 2 weeks prior to induction of disease and throughout the course of the disease.

O=P(O)(O)C(O)(Cn1ccnc1)P(=O)(O)O [ZA, Zoledronic acid]
serum levels of osteocalcin: 49 ± 1 ng/mL
